US20150164791A1, “CORNEAL SHAPING” (priority 2005, published 2015)

Experiments:
[1] = in vivo; cited from earlier work
MMPs 1, 2 and 8 = details: rat corneas; cited from earlier work
MMP's 1, 2, 8 and 9 = details: topical; rat cornea; animals with epithelial defects and with intact epithelium; cited from earlier work
[2] = tested on: matrix metalloproteinases; experiment: Activation of matrix metalloproteinases by gatifloxacin (established by the inventor)

For `C[C@H]1c2cccc(O)c2C(O)=C2C(=O)[C@]3(O)C(O)=C(C(N)=O)C(=O)[C@@H](N(C)C)[C@@H]3[C@@H](O)[C@@H]21` [doxycyline, doxycycline], the corneal penetration [1] is given as “penetrate the cornea well” and the tolerability [1] is given as “well tolerated”.
For `O=C(c1ccccc1)c1ccc2n1CCC2C(=O)O` (stereo not drawn) [ketorolac], the “expression of MMPs 1, 2 and 8” value (MMPs 1, 2 and 8) is given as “induce expression”.
In the case of `O=C(O)c1cn(C2CC2)c2cc(N3CCNCC3)c(F)cc2c1=O` [ciprofloxacin], the “MMP levels in corneal epithelium and anterior stroma” value (MMP's 1, 2, 8 and 9) is listed as “increased”.
For `O=C(O)Cc1ccccc1Nc1c(Cl)cccc1Cl` [Diclofenac], the “expression of MMPs 1, 2 and 8” value (MMPs 1, 2 and 8) is given as “induce expression”.
For `COc1c(N2CCNC(C)C2)c(F)cc2c(=O)c(C(=O)O)cn(C3CC3)c12` (stereo not drawn) [gatifloxacin], the “activation of matrix metalloproteinases” value [2] was “capable of activating matrix metalloproteinases”.
